Tested on: CypA
Test: HA peptide isomerization
Assay type: biochemical
Conditions: Pro2 of the HA peptide

## YPTDVPDYA [HA]
  isomerization at Pro2: not isomerized by CypA
